Data on 3 molecules can be found in paper PMC3445516 (PLoS ONE, 2012).

SMILES strings stand for the structures. Like-named read-outs stand apart in the source and are kept apart here.

Holding throughout (experiment): Ambit kinase profiling, competition binding
For one test, the target named is T1, DAPK1 (Homo sapiens, UniProt P53355).
T1 construct: purchased Ambit Biosciences (KINOMEscan)
As for the experimental part: (§1) Also included in the kinase profile are four isoforms of PKC (δ, ε, η, θ) and eight isoforms of CAMKs (CAMKIα, δ, γ; CAMKIIα, β, δ, γ; CAMK4).
(§2) The global kinase profiling experiment was performed by Ambit Biosciences.

Another test has as its target T2, DMPK2 (Homo sapiens, UniProt Q6DT37).
T2 construct: purchased Ambit Biosciences (KINOMEscan)
Here is the method:
as §1, §2

The target in a further test is T3, YES (Homo sapiens, UniProt P07947).
T3 construct: purchased Ambit Biosciences (KINOMEscan)
Here is the method:
as §1, §2

The next test concerns the target T4, EGFR(E746-A750del) (Homo sapiens, UniProt P00533, DEL746-750).
T4 construct: purchased Ambit Biosciences (KINOMEscan)
The note with it: for % Competition: 10 µM. Here is the method: as §1, §2

Another test has as its target T5, SLK (Homo sapiens, UniProt Q9H2G2).
T5 construct: purchased Ambit Biosciences (KINOMEscan)
Here is the method: as §1, §2

The target in a further test is T6, RIPK2 (Homo sapiens, UniProt O43353).
T6 construct: purchased Ambit Biosciences (KINOMEscan)
As for the experimental part: as §1, §2

For another test, the target named is T7, AURKC (Homo sapiens, UniProt Q9UQB9).
T7 construct: purchased Ambit Biosciences (KINOMEscan)
T7 sequence (Q9UQB9 1-309): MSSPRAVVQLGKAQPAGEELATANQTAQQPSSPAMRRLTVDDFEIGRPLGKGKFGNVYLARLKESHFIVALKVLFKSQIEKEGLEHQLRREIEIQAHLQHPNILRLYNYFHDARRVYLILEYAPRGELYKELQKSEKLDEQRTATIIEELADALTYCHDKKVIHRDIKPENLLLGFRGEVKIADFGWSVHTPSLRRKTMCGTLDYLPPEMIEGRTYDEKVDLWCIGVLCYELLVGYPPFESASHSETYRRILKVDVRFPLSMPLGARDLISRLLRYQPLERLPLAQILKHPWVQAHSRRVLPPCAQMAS
Here is the method: as §1, §2

Another test concerns the target T8, TGFBR2 (Homo sapiens, UniProt P37173).
T8 construct: purchased Ambit Biosciences (KINOMEscan)
Here is the method: as §1, §2

The next test has as its target T9, JNK3 (Homo sapiens, UniProt P53779).
T9 construct: purchased Ambit Biosciences (KINOMEscan)
The conditions noted are these: for % Competition: 10 µM. Here is the method: as §1, §2

The next test addresses T10, CDK3 (Homo sapiens, UniProt Q00526).
T10 construct: purchased Ambit Biosciences (KINOMEscan)
The note with it: for % Competition: 10 µM. Here is the method: as §1, §2

For the next test, the target named is T11, CAMKIIβ (Homo sapiens, UniProt Q13554).
T11 construct: purchased Ambit Biosciences (KINOMEscan)
The conditions noted are these: for competition: CAMKIIβ, 10 µM. As for the experimental part: as §1, §2

The target of a further test is T12, EGFR(S752-I759del) (Homo sapiens, UniProt P00533, DEL752-759).
T12 construct: purchased Ambit Biosciences (KINOMEscan)
The note with it: for % Competition: 10 µM. Here is the method: as §1, §2

A further test addresses T13, CAMKIIδ (Homo sapiens, UniProt Q13557).
T13 construct: purchased Ambit Biosciences (KINOMEscan)
The note with it: for competition: CAMKIIδ, 10 µM. As for the experimental part: as §1, §2

The target in another test is T14, PCTK3 (Homo sapiens, UniProt Q07002).
T14 construct: purchased Ambit Biosciences (KINOMEscan)
Here is the method: as §1, §2

A further test concerns the target T15, CAMK4 (Homo sapiens, UniProt Q16566).
T15 construct: purchased Ambit Biosciences (KINOMEscan)
T15 sequence (Q16566 1-473): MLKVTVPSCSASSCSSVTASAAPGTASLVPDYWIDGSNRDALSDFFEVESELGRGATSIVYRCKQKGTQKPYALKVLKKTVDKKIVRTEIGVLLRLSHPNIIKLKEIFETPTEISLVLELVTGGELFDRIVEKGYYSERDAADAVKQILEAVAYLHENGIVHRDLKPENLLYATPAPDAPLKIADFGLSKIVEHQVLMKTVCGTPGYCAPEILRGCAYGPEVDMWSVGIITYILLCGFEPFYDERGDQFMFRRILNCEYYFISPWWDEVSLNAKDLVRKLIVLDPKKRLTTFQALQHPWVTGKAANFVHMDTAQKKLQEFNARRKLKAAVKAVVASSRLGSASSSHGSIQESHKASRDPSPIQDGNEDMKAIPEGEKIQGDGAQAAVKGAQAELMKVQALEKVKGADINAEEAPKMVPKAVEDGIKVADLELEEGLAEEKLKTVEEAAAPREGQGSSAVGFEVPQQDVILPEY
The note with it: for competition: 10 µM. As for the experimental part:
as §1, §2

A further test concerns the target T16, EPHA1 (Homo sapiens, UniProt P21709).
T16 construct: purchased Ambit Biosciences (KINOMEscan)
T16 sequence (P21709 26-976): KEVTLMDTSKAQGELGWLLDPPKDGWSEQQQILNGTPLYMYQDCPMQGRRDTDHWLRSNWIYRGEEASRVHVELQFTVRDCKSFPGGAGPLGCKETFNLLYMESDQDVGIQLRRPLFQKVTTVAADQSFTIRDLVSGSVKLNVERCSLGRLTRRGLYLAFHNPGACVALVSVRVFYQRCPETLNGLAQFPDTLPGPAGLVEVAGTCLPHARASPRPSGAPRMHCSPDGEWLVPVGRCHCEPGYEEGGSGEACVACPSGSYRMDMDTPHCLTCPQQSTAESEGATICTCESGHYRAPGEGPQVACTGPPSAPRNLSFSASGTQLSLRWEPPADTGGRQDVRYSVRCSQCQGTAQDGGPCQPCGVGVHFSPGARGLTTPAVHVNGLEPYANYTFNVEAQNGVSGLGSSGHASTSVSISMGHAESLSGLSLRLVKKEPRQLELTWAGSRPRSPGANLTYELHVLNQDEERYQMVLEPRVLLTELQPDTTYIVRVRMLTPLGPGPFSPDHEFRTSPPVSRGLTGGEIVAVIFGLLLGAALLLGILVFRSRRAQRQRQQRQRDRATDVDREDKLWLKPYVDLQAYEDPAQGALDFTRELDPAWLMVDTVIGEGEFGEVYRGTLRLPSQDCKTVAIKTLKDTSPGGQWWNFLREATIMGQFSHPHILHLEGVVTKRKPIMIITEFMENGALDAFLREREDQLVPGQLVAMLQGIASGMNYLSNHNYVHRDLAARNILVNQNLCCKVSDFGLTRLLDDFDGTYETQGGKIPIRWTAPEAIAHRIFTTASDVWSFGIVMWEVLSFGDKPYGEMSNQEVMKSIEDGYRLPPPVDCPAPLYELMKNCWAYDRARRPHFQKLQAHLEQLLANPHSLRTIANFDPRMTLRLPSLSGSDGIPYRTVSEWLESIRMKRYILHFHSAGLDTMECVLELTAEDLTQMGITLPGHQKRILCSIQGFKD
As for the experimental part: as §1, §2

The next test deals with T17, JNK2 (Homo sapiens, UniProt P45984).
T17 construct: purchased Ambit Biosciences (KINOMEscan)
The conditions noted are these: for % Competition: 10 µM. Here is the method: as §1, §2

T5 sequence (Q9H2G2 whole entry): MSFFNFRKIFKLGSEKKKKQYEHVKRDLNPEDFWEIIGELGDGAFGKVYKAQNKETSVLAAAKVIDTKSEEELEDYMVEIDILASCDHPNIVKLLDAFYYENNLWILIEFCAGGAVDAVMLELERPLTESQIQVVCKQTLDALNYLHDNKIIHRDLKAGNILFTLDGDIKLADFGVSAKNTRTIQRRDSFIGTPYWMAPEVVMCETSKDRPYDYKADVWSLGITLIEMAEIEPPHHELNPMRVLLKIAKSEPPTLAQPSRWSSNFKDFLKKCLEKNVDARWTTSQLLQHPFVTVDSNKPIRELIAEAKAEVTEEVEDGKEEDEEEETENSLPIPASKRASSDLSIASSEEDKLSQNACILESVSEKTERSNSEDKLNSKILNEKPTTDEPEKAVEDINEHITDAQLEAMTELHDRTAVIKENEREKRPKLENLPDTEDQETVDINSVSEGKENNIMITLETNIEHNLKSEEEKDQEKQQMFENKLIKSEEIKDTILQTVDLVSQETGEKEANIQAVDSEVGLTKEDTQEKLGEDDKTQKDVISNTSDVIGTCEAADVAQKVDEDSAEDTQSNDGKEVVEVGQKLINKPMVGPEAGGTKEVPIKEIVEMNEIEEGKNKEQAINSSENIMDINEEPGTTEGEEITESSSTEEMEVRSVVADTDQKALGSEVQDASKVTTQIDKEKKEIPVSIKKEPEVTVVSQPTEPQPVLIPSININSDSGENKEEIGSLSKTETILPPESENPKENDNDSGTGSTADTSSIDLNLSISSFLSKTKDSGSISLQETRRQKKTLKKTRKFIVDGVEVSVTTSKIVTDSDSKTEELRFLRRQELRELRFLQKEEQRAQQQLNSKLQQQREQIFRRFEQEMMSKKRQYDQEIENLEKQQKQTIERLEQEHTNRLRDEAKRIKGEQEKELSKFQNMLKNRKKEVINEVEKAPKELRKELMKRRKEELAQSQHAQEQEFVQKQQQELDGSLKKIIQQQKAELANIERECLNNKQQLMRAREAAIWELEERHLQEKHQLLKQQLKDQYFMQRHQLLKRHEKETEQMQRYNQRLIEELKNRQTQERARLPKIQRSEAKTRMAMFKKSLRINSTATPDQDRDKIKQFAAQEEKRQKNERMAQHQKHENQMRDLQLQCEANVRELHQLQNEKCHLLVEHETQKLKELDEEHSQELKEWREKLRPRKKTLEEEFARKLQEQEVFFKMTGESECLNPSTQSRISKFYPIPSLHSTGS
T2 sequence (Q6DT37 whole entry): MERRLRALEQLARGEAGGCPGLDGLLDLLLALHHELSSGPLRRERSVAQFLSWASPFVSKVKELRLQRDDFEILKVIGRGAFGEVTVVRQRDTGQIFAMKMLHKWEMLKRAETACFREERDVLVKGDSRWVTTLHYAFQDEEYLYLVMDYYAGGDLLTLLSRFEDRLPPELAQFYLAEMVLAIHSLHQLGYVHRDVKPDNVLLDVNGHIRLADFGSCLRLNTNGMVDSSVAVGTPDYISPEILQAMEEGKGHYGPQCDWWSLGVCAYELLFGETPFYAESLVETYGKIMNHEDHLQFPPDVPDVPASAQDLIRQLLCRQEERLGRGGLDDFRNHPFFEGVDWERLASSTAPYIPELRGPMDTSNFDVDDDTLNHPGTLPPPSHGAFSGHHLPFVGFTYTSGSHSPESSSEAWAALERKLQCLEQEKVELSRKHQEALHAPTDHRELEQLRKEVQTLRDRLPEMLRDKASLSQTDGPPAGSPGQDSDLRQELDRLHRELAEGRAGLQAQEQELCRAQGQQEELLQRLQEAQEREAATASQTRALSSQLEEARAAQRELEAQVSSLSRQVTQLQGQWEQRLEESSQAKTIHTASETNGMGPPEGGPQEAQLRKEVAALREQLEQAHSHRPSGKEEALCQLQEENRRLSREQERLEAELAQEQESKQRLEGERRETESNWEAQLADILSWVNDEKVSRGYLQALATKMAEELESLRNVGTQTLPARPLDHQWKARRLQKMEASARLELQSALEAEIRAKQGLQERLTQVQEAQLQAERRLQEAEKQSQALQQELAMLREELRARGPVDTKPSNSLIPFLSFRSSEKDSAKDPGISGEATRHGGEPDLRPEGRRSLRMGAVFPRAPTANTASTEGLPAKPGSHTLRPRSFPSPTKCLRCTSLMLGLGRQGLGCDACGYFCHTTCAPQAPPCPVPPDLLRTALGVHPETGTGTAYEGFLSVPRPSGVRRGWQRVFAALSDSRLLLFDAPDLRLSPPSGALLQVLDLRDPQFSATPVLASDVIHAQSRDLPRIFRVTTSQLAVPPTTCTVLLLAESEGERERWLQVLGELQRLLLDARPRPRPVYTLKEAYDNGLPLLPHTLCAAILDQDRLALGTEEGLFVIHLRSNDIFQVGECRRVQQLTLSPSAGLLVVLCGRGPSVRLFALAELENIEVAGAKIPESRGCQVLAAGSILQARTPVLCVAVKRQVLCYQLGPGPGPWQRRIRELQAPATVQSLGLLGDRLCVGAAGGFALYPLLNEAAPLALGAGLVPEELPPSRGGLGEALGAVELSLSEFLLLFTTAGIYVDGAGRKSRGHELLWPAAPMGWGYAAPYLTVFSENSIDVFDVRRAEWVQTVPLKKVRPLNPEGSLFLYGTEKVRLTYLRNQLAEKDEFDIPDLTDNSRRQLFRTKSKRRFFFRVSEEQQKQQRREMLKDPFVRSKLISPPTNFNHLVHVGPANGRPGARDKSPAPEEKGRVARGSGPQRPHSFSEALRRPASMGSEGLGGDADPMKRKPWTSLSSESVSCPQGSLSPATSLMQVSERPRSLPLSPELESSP
T1 sequence (P53355 whole entry): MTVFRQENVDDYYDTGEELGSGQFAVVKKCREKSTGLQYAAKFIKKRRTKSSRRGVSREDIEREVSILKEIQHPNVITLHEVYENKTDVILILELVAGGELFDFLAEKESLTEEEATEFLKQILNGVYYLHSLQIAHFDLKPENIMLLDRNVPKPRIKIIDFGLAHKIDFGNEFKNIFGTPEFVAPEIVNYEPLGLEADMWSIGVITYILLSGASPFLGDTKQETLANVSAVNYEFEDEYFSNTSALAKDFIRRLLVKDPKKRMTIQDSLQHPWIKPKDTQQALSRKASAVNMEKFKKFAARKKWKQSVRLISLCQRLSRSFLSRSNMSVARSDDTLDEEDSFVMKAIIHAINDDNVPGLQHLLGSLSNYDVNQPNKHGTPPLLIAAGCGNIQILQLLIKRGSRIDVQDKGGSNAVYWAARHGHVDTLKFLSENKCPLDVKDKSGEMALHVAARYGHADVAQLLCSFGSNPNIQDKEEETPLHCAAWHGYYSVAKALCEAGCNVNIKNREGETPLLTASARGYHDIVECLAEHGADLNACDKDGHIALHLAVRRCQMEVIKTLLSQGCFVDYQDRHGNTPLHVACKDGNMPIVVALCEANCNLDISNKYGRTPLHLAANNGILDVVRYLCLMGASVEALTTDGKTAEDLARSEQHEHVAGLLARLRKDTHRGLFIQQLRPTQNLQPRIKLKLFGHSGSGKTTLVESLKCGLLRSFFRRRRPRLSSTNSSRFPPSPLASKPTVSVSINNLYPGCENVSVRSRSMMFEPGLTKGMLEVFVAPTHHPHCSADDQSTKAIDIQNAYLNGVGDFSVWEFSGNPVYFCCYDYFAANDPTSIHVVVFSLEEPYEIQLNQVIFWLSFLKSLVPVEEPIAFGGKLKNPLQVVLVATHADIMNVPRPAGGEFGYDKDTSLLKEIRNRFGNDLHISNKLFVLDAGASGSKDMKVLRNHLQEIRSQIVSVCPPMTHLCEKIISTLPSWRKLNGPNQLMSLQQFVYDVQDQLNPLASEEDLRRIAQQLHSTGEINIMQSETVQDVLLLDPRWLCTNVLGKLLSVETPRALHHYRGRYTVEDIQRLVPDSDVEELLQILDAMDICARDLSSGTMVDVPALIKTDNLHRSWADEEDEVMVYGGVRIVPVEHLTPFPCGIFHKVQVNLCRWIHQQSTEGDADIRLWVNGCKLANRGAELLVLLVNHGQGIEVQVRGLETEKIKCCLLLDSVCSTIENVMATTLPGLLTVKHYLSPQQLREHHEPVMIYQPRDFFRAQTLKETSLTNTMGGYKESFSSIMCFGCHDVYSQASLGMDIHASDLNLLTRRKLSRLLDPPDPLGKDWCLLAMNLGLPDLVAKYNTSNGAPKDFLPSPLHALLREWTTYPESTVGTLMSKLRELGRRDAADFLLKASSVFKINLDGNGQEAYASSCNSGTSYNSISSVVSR
T10 sequence (Q00526 whole entry): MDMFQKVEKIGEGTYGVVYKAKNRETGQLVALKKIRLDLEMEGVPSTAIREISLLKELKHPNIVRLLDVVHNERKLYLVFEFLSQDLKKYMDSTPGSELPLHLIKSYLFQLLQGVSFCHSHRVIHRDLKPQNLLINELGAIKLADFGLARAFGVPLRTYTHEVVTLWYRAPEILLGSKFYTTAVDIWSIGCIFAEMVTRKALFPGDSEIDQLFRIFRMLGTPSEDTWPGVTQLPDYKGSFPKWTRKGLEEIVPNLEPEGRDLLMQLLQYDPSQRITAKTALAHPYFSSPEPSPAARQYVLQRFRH
T13 sequence (Q13557 whole entry): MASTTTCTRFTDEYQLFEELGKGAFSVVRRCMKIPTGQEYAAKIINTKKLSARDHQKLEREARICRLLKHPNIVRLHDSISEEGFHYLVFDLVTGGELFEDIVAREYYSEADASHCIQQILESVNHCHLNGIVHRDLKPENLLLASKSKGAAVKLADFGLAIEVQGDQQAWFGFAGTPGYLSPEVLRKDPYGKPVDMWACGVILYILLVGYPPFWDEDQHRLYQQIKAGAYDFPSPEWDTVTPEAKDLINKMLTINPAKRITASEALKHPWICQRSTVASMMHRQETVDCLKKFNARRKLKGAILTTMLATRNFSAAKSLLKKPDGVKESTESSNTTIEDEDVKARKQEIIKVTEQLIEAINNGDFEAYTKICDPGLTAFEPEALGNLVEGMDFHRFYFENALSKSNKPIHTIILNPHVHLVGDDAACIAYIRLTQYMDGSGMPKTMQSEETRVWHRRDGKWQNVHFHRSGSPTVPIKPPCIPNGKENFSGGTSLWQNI

Take `Fc1ccc(-c2c(-c3ccncc3)[nH]c3nccnc23)cc1` [Compound 122]: the inhibition at 10 µM is below 50% at DAPK1 (DAPK1, 10 µM, read-out: % Competition); 100% at DMPK2 (DMPK2, 10 µM, read-out: % Competition); 73% on YES (YES, 10 µM, read-out: % Competition); 80% on SLK (SLK, 10 µM, read-out: % Competition); 97% on RIPK2 (RIPK2, 10 µM, read-out: % Competition); 86% on AURKC (AURKC, 10 µM, read-out: % Competition). The inhibition at 10 µM came out at 98% on TGFBR2 (TGFBR2, 10 µM, read-out: % Competition); 77% at PCTK3 (PCTK3, 10 µM, read-out: % Competition); 81% at EPHA1 (EPHA1, 10 µM, read-out: % Competition). In addition, the “% Competition” value at EGFR(E746-A750del) came out at 96%; at JNK3, 88%; on CDK3, 92%; on EGFR(S752-I759del) it was 98%; at JNK2 it was 100%. Also, the competition at CAMKIIβ, on CAMKIIδ and at CAMK4 was below 50% each time.
For `CC(O)CNc1cc(-c2[nH]c3cccnc3c2-c2ccc(F)cc2)ccn1` (stereo not drawn) [Compound 140], the inhibition at 10 µM at DAPK1 (read-out: % Competition) was 73%; at DMPK2 (read-out: % Competition) it was 74%; on YES (read-out: % Competition) it was below 50%; at SLK (read-out: % Competition) it was below 50%; at RIPK2 (read-out: % Competition), 94%; at AURKC (read-out: % Competition) it was below 50%. For the same molecule, the inhibition at 10 µM on TGFBR2 (read-out: % Competition), on PCTK3 (read-out: % Competition) and at EPHA1 (read-out: % Competition) was below 50% in each case. Besides, the “% Competition” value on EGFR(E746-A750del) is given as 90%; on JNK3, 83%; on CDK3, below 50%; on EGFR(S752-I759del), 91%; on JNK2, 100%. The competition on CAMKIIβ, at CAMKIIδ and at CAMK4 was below 50% each time.
As for `Fc1ccc(-c2c(-c3ccncc3)[nH]c3nccnc23)cc1` [RO1155697-000-005], the inhibition at 10 µM at DAPK1 (DAPK1, compound concentration 10 uM, read-out: Percent Competition) was below 50%; on DMPK2 (DMPK2, compound concentration 10 uM, read-out: Percent Competition) it was 100%; on YES (YES, compound concentration 10 uM, read-out: Percent Competition), 73%; on SLK (SLK, compound concentration 10 uM, read-out: Percent Competition), 80%; on RIPK2 (RIPK2, compound concentration 10 uM, read-out: Percent Competition), 97%; on AURKC (AURKC, compound concentration 10 uM, read-out: Percent Competition), 86%. Moreover, the inhibition at 10 µM at TGFBR2 (TGFBR2, compound concentration 10 uM, read-out: Percent Competition) was 98%; on CAMKIIβ (CAMK2B, compound concentration 10 uM, read-out: Percent Competition), below 50%; at CAMKIIδ (CAMK2D, compound concentration 10 uM, read-out: Percent Competition), below 50%; at PCTK3 (PCTK3, compound concentration 10 uM, read-out: Percent Competition) it was 77%; at CAMK4 (compound concentration 10 uM, read-out: Percent Competition), below 50%; at EPHA1 (EPHA1, compound concentration 10 uM, read-out: Percent Competition) it was 81%. For the same molecule, the “Percent Competition” value at EGFR(E746-A750del) (compound concentration 10 uM) is given as 96%; at JNK3 (compound concentration 10 uM) it was 88%; at CDK3 (compound concentration 10 uM), 92%; at EGFR(S752-I759del) (compound concentration 10 uM), 98%; at JNK2 (compound concentration 10 uM), 100%.
